SMILES strings stand for the structures.

The record followed here is article PMC13576449, “Small-Molecule Activators of PRMT1: Discovery, SAR Analyses, and Proapoptotic Effects in Pancreatic Cancer Cells” (Journal of Medicinal Chemistry, 2026).

T1 sequence (Q96LA8 whole entry): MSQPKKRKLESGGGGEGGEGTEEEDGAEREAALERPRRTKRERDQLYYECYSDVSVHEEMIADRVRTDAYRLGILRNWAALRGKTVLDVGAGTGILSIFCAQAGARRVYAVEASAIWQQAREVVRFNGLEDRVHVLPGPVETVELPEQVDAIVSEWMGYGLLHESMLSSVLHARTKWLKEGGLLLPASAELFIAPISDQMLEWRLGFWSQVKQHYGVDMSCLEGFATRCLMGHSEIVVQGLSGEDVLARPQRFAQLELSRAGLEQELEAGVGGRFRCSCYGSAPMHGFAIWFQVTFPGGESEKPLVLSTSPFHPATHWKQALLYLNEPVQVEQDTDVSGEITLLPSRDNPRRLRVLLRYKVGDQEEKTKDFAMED

One assay concerns the target T1, FLAG-tagged PRMT6 (Homo sapiens, UniProt Q96LA8).
T1 construct: The complete ORFs of human PRMT3 and PRMT6 were inserted; made in house; host or cells: Sf9 insect cells (baculovirus)
Kind of assay: Fluorescence-based in vitro PRMT assay (F-PRMT assay), PRMT6. The following applies: Table S2; 100 µM compound, vs solvent control = 100%, n=3; racemates used. The format is biochemical. The source says: To evaluate the effects of the selected candidate molecules on the catalytic activity of type I enzymes, we employed a quantitative fluorescence-based in vitro PRMT activity (F-PRMT) assay using recombinant FLAG-tagged PRMT proteins expressed and affinity-purified from baculovirus-infected Sf9 cells (SI Figure S1, SI Figure S2A).
Human cell lines (PaTu8988T, PANC-1) were obtained from ATCC (American Type Culture Collection) and cultured in DMEM supplemented with 10% fetal calf serum (FCS, Gibco/BRL), 1% penicillin/streptomycin at 37 °C and 5% CO2. […] For PRMT1 inhibition, cells were treated with type I PRMT inhibitor MS023 hydrochloride (Biomol). For induction of genotoxic stress, cells were treated with gemcitabine (LC Laboratories). […] The following plasmids were used: pFASTBAC-FLAG-rat PRMT1, pFASTBAC-FLAG-mouse PRMT4, and pGEX-GAR. The complete ORFs of human PRMT3 and PRMT6 were inserted into the pFASTBAC HT-3xFLAG B vector via BamHI/HindIII and BamHI/XhoI sites, respectively.
For PRMT protein expression in insect cells, recombinant baculovirus (bacmid) was generated using the Bac-to-Bac baculovirus system (Invitrogen). Sf9 cells were transfected with bacmid DNA using X-tremeGENE HP DNA transfection reagent (Sigma-Aldrich) according to the manufacturer's instructions. After 3–5 days, supernatants were collected, filtered, and used to infect Sf9 cells to amplify the virus. After 2 rounds of virus amplification and estimation of the final P3 virus titer, the P3 virus (2–5 μL/10^6 cells) was applied for large-scale infection of 200 × 10^6 Sf9 cells in suspension culture at a density of 1 × 10^6 cells/mL. Cells were harvested 5–6 days post-infection by centrifugation at 500 g for 5 min at room temperature. Protein purification from baculovirus-infected Sf9 cells was performed as previously described. , Cells were lysed in BC buffer (20 mM HEPES pH 7.9, 250 mM NaCl, 10% (v/v) glycerin, 0.4 mM EDTA, 1 mM DTT) containing a protease inhibitor cocktail (Roche) by 3 freeze-thaw cycles. After centrifugation at 11,000 rpm (Sorval SS34 rotor) and 4 °C for 1 h, the supernatant (whole cell protein extract) was incubated with anti-FLAG M2 Affinity Gel (Cytiva) at 4 °C and under agitation for 4 h. Subsequently, beads were washed in BC buffer containing various NaCl concentrations (once in BC with 1 M NaCl, twice in BC with 500 mM NaCl, twice in BC with 250 mM NaCl and twice in BC with 100 mM NaCl). FLAG-tagged proteins were either maintained bead-bound as a 50% (v/v) slurry in BC buffer with 100 mM NaCl and stored at −80 °C or were eluted in the appropriate elution buffer (depending on the subsequent assay) containing 0.25 mg/mL 3xFLAG peptides (Sigma-Aldrich) at 4 °C for 30–45 min. To remove the FLAG-peptides from the eluate, dialysis was performed in elution buffer containing 10% (v/v) glycerol at 4 °C for 4–6 h using Slide-A-Lyzer Dialysis Devices (Thermo Fisher Scientific) according to the manufacturer’s recommendations.
In the first step, the fluorogenic substrate Nα-Benzoyl-L-arginine-7-amido-4-methylcoumarin (Bz-Arg-AMC, Sigma-Aldrich) undergoes methylation by PRMTs upon the addition of the cofactor SAM. In the second reaction step, trypsin cleaves the nonmethylated substrate, leading to the generation of the 7-amino-4-methylcoumarin product, which can be quantified by subsequent fluorescence measurement (excitation: 355 nm, emission: 460 nm). The first reaction was conducted with bead-bound PRMTs at a total volume of 100 μL. Each condition was performed as a technical triplicate to determine the mean and the standard deviation. […] For the negative controls, SAM was substituted with assay buffer. The incubation was continued at 37 °C and under agitation (1,000 rpm) for a duration of 2 h.
Consider `CN1CCC[C@H]1CCn1ccnc1-c1ccc2nonc2c1` (racemic) [Compound K002FT007], for which the “Experimental result (PRMT6)” value was “n.e. (did not significantly affect the catalytic activity of the intended PRMT (less than ±6% change or not significant p-value), are marked with n.e. (no effect))”. On the same count and under the same terms, the result for `Cc1nc(N)cc(NC[C@H]2CC(=O)N(c3ccccc3)C2)n1` (racemic) [Compound K002FT010] reads “n.e. (did not significantly affect the catalytic activity of the intended PRMT (less than ±6% change or not significant p-value), are marked with n.e. (no effect))”; that for `CN[C@H](CO)c1cc(OC)ccc1Br` (racemic) [Compound K002FT016], “n.e. (did not significantly affect the catalytic activity of the intended PRMT (less than ±6% change or not significant p-value), are marked with n.e. (no effect))”. With `COc1ccc(Cl)cc1NC(=O)[C@@H]1CCCN1` (racemic) [Compound K002JS001], the “Experimental result (PRMT6)” value was “n.e. (did not significantly affect the catalytic activity of the intended PRMT (less than ±6% change or not significant p-value), are marked with n.e. (no effect))”.

Turning to `Nc1nccc(N2CC[C@@]3(CCCN(C4CCOCC4)C3=O)C2)n1` (racemic) [Compound K002JS009], the “Experimental result (PRMT6)” value was “n.e. (did not significantly affect the catalytic activity of the intended PRMT (less than ±6% change or not significant p-value), are marked with n.e. (no effect))”.

In the case of `CN1CC[C@@](O)(CNCCc2cccc(OC(F)(F)F)c2)C1` (racemic) [Compound K600JK012], the “Experimental result (PRMT6)” value is given as “n.e. (did not significantly affect the catalytic activity of the intended PRMT (less than ±6% change or not significant p-value), are marked with n.e. (no effect))”.

In the case of `CNCCNC(=O)NC[C@@]12CNC[C@@]1(C(F)(F)F)C2` (racemic) [Compound K600JK013], the “Experimental result (PRMT6)” value was “n.e. (did not significantly affect the catalytic activity of the intended PRMT (less than ±6% change or not significant p-value), are marked with n.e. (no effect))”.

As to `COc1cc(CNCCNCCO)cc(Cl)c1OC(C)C` [Compound K002FT001], the “Experimental result (PRMT6)” value is “n.e. (did not significantly affect the catalytic activity of the intended PRMT (less than ±6% change or not significant p-value), are marked with n.e. (no effect))”.

For `COCC1(CNCc2nnc([C@H]3C[C@H](N)C3)n2C2CC2)CC1` [Compound K002FT002], the “Experimental result (PRMT6)” value was “n.e. (did not significantly affect the catalytic activity of the intended PRMT (less than ±6% change or not significant p-value), are marked with n.e. (no effect))”.

In the case of `CCNc1nc(C)cc(NCCNC(=O)Cc2ccc(F)cc2)n1` [Compound K002FT003], the “Experimental result (PRMT6)” value was “n.e. (did not significantly affect the catalytic activity of the intended PRMT (less than ±6% change or not significant p-value), are marked with n.e. (no effect))”. As to `Cc1cccc(-n2ncc3c(NCCN(C)C)ncnc32)c1` [Compound K002FT004], the “Experimental result (PRMT6)” value was “n.e. (did not significantly affect the catalytic activity of the intended PRMT (less than ±6% change or not significant p-value), are marked with n.e. (no effect))”. The same measure, in the same setting: the result for `CN(C)CCNc1ncnc2cc(-c3ccc(F)cc3)sc12` [Compound K002FT005] reads “n.e. (did not significantly affect the catalytic activity of the intended PRMT (less than ±6% change or not significant p-value), are marked with n.e. (no effect))”; that for `COc1cc(CNCCO)ccc1Oc1nnnn1-c1ccccc1` [Compound K002FT006], “n.e. (did not significantly affect the catalytic activity of the intended PRMT (less than ±6% change or not significant p-value), are marked with n.e. (no effect))”. On to `CNCC1CCN(Cc2cc(F)ccc2C)CC1` [Compound K002FT009], for which the “Experimental result (PRMT6)” value is “n.e. (did not significantly affect the catalytic activity of the intended PRMT (less than ±6% change or not significant p-value), are marked with n.e. (no effect))”. Still for that read-out and setting: the result for `COc1cc(CNCCN(C)C)ccc1OCc1nc(C)no1` [Compound K002FT011] reads “n.e. (did not significantly affect the catalytic activity of the intended PRMT (less than ±6% change or not significant p-value), are marked with n.e. (no effect))”. Consider `Cc1cc(NC(=O)CN(C)C)cc(N2CCN(C(C)C)CC2)c1` [Compound K002FT012], for which the “Experimental result (PRMT6)” value is reported as “n.e. (did not significantly affect the catalytic activity of the intended PRMT (less than ±6% change or not significant p-value), are marked with n.e. (no effect))”. With `Clc1ccc(N2CCN(c3ncnc4[nH]ccc34)CC2)nc1` [Compound K002FT013], the “Experimental result (PRMT6)” value is listed as “n.e. (did not significantly affect the catalytic activity of the intended PRMT (less than ±6% change or not significant p-value), are marked with n.e. (no effect))”. Regarding `CCc1c(-c2cccc3ccccc23)nc2ccc(NC(=O)CN)cn12` [Compound K002FT014], the “Experimental result (PRMT6)” value was “n.e. (did not significantly affect the catalytic activity of the intended PRMT (less than ±6% change or not significant p-value), are marked with n.e. (no effect))”. The same measure, in the same setting: the result for `c1ccc2oc(C3CCN(Cc4c[nH]cn4)CC3)nc2c1` [Compound K002FT015] reads “n.e. (did not significantly affect the catalytic activity of the intended PRMT (less than ±6% change or not significant p-value), are marked with n.e. (no effect))”; that for `CN(C)CC(=O)Nc1cnccc1N1CCOCC1` [Compound K002FT018], “n.e. (did not significantly affect the catalytic activity of the intended PRMT (less than ±6% change or not significant p-value), are marked with n.e. (no effect))”. `CNCC(=O)NCCc1ccc(OC)c(OC)c1` [Compound K002JS002]: the “Experimental result (PRMT6)” value is on record as “n.e. (did not significantly affect the catalytic activity of the intended PRMT (less than ±6% change or not significant p-value), are marked with n.e. (no effect))”.

As to `COc1cccc(NC(=O)CNCCC(N)=O)c1` [Compound K002JS005], the “Experimental result (PRMT6)” value is recorded as “n.e. (did not significantly affect the catalytic activity of the intended PRMT (less than ±6% change or not significant p-value), are marked with n.e. (no effect))”. The same measure, in the same setting: the result for `COc1cc(CN2CCC(CN)C2)cc(Cl)c1OC` (stereo not shown) [Compound K002JS010] reads “n.e. (did not significantly affect the catalytic activity of the intended PRMT (less than ±6% change or not significant p-value), are marked with n.e. (no effect))”; that for `NCCCCNCc1cc(Br)cs1` [Compound K002JS012], “n.e. (did not significantly affect the catalytic activity of the intended PRMT (less than ±6% change or not significant p-value), are marked with n.e. (no effect))”. Still for that read-out and setting: the result for `O=[N+]([O-])c1ccc(Sc2n[nH]c(Cc3ccccc3)n2)nc1` [Compound K002JS015] reads “n.e. (did not significantly affect the catalytic activity of the intended PRMT (less than ±6% change or not significant p-value), are marked with n.e. (no effect))”; that for `OC1(c2c[nH]nn2)CCN(CCOc2ccc(Cl)cc2)C1` (stereo not shown) [Compound K002JS017], “n.e. (did not significantly affect the catalytic activity of the intended PRMT (less than ±6% change or not significant p-value), are marked with n.e. (no effect))”. In the case of `COc1cc(CNC(C)C)ccc1OCc1nc(C)no1` [Compound K002JS018], the “Experimental result (PRMT6)” value is on record as “n.e. (did not significantly affect the catalytic activity of the intended PRMT (less than ±6% change or not significant p-value), are marked with n.e. (no effect))”.

The same assay, now with this note: Table S2; 100 µM compound; mean % difference vs solvent control (100%), n=3.
Turning to `Cc1cc(NCCc2nc(C)cc(=O)[nH]2)nc(N2CCCCC2)n1` [Compound K002FT008], the “Efficacy ±∆% (PRMT6)” value is reported as -10%.
